Assay [1] has as its target Protein arginine N-methyltransferase 8 (Homo sapiens, UniProt Q9NR22). The note with it: at 1 µM.
For assay [2], the target named is Beta-2 adrenergic receptor (Homo sapiens, UniProt P07550). Briefly: Selectivity interaction (Panel of kinases, GPCRs, ion channels and transporters (enzymatic assay)) EUB0000266bCl ADRB2.
For assay [3], the target named is Tyrosine-protein kinase JAK1 (Homo sapiens, UniProt P23458). In words: Selectivity interaction (ActivX KiNativ screen (kinase selectivity in THP-1 cell lysates)) EUB0000639a JAK1. Format: subcellular. The note with it: lysate, at 5 µM.
The target of assay [4] is T1, Serine/threonine-protein kinase LATS1 (Homo sapiens) (UniProt O95835).
T1 sequence (whole entry): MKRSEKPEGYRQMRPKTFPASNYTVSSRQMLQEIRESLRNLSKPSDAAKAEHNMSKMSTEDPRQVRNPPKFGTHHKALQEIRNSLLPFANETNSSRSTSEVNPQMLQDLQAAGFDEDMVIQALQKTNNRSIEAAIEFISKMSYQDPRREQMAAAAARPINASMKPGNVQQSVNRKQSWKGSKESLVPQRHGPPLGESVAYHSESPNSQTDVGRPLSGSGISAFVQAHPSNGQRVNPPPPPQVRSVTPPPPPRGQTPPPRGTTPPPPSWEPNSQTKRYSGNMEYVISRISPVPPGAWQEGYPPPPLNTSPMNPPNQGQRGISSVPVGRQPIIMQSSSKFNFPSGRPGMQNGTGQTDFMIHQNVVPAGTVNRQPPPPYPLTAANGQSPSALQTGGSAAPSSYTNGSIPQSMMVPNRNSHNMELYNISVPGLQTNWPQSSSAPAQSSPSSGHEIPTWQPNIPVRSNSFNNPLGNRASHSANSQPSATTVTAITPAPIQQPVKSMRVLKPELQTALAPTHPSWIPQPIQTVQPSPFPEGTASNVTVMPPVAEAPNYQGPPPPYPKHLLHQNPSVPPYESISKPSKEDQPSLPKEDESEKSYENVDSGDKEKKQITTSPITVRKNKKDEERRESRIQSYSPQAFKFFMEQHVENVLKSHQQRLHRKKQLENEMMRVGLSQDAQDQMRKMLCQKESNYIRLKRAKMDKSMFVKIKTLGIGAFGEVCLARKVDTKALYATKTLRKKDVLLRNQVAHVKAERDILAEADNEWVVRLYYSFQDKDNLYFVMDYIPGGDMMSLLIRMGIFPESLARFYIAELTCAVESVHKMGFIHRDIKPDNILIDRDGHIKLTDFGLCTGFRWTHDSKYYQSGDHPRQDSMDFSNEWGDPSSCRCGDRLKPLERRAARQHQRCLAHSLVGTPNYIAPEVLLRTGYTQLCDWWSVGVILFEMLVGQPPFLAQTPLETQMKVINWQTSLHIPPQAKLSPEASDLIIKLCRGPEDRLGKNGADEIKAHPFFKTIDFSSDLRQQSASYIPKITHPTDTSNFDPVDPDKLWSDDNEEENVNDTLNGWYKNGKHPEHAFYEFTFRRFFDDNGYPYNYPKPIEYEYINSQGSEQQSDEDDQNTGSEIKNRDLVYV
Briefly: Selectivity interaction (ActivX KiNativ screen (kinase selectivity in THP-1 cell lysates)) EUB0000639a LATS1. The assay is classed as subcellular. The note with it: lysate, at 5 µM.

The target in assay [5] is Angiopoietin-1 receptor (Homo sapiens) (UniProt Q02763). Briefly: Selectivity interaction (ProQinase) EUB0000171b TEK. The note with it: at 5 µM.
The target of assay [6] is T2, Megakaryocyte-associated tyrosine-protein kinase (Homo sapiens) (UniProt P42679).
T2 sequence (whole entry): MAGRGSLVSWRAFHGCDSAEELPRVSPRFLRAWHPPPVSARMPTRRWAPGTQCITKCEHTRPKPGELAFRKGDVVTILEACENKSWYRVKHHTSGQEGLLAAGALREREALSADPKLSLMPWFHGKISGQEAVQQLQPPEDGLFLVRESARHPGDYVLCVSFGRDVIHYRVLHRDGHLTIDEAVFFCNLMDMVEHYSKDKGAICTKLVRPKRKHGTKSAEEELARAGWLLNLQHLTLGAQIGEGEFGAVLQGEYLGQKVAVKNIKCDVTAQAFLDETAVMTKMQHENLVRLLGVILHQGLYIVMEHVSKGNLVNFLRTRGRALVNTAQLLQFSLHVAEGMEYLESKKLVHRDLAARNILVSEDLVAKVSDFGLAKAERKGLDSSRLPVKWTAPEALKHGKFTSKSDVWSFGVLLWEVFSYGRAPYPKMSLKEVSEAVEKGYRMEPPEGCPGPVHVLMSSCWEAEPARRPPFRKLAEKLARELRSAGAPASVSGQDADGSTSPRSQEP
In words: Selectivity interaction (KinomeScan (DiscoverX)) EUB0000092b MATK. The note with it: at 10 µM.

Assay [7] addresses T3, Hormonally up-regulated neu tumor-associated kinase (Homo sapiens) (UniProt P57058).
T3 sequence (whole entry): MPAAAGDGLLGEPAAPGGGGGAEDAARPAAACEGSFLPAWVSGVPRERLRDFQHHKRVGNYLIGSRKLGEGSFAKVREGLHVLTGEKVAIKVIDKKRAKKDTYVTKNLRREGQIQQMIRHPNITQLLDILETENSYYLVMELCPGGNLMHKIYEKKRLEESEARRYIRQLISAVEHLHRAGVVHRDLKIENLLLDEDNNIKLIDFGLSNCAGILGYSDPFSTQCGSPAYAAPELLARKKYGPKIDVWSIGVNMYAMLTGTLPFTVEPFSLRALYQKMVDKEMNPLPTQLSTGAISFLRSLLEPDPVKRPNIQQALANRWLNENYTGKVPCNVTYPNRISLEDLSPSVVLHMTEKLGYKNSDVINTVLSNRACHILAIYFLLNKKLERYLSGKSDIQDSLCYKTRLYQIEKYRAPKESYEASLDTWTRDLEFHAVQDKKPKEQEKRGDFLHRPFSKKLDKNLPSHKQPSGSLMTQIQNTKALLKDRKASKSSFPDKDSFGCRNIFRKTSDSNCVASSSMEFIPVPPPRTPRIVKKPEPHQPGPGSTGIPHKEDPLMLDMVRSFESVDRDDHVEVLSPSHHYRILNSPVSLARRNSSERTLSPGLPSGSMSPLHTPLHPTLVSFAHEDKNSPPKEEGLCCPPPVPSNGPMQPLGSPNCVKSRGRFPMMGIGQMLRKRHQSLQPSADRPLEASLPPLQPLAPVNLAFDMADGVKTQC
Briefly: Selectivity interaction (KinomeScan (DiscoverX)) EUB0000618a HUNK. The note with it: at 10 µM.

SMILES strings stand for the structures.

Protein arginine N-methyltransferase 8, sequence (Q9NR22 2-394 limits assumed): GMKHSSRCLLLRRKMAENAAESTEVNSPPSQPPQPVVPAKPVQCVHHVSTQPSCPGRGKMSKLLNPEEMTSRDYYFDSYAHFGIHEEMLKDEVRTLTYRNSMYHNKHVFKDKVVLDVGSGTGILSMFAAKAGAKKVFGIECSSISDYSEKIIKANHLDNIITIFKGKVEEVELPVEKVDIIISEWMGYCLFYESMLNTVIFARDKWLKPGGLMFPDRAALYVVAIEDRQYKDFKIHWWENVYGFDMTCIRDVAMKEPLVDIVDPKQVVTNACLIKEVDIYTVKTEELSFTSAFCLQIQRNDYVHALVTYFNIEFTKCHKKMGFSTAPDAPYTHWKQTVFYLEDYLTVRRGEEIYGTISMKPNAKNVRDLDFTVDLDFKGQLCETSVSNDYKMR
Angiopoietin-1 receptor (Homo sapiens), sequence (Q02763 whole entry): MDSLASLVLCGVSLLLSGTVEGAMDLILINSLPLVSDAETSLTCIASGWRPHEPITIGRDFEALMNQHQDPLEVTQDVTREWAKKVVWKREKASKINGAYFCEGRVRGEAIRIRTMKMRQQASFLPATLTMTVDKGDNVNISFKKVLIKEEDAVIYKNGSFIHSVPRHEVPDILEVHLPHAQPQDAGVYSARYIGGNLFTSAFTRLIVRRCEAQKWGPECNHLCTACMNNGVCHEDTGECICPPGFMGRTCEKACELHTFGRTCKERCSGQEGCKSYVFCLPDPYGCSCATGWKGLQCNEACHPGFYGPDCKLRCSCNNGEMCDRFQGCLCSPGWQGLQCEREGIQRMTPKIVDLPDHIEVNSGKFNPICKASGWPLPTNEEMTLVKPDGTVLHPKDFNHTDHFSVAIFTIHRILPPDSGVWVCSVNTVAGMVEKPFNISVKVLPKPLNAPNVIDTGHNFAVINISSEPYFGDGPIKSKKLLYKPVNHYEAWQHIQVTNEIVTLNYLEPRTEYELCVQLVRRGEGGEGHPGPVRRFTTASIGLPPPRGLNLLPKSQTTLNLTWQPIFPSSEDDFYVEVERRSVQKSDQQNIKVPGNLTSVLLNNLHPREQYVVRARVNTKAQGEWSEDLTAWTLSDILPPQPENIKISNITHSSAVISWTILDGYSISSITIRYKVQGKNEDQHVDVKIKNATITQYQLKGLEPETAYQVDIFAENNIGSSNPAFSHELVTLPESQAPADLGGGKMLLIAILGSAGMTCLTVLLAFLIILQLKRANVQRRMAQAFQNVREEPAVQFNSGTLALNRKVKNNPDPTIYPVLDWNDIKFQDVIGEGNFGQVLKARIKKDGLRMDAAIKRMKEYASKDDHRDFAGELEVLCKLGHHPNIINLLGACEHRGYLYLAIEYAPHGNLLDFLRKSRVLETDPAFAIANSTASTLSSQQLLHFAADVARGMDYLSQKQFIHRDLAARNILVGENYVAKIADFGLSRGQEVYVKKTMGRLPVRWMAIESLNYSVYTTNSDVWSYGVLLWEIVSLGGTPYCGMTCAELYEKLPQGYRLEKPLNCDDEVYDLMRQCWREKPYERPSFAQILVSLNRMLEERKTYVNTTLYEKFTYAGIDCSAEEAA
Tyrosine-protein kinase JAK1, sequence (P23458 whole entry): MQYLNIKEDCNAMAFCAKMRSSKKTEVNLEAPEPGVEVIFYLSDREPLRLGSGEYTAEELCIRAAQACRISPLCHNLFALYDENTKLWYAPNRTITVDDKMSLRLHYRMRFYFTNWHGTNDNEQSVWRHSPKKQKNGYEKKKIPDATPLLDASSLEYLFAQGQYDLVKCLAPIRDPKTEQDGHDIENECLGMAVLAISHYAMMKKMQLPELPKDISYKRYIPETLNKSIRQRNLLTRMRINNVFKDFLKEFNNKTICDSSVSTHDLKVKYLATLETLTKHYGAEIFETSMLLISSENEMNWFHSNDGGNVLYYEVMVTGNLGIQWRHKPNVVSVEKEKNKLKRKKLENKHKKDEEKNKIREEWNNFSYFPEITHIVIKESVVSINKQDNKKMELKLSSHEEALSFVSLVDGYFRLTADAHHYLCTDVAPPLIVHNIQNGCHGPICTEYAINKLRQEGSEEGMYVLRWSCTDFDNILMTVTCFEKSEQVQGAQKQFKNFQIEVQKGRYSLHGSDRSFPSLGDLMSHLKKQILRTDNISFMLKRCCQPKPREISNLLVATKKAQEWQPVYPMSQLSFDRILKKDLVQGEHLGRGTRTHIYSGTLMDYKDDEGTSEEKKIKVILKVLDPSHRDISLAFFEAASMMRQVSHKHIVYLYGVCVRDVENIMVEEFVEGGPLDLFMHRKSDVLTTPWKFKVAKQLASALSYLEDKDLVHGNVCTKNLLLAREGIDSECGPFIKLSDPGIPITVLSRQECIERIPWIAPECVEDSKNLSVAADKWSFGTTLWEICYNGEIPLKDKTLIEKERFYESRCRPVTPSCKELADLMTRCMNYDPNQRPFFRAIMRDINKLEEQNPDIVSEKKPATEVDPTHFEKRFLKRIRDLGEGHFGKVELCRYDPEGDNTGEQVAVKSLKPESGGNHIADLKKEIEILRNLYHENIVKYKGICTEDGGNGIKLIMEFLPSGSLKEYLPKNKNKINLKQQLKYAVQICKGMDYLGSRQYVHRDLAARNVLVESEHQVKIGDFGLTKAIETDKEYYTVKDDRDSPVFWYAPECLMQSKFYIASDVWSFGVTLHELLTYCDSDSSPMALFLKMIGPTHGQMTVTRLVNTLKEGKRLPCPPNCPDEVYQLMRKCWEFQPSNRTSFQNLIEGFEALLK
Beta-2 adrenergic receptor, sequence (P07550 whole entry, looked up): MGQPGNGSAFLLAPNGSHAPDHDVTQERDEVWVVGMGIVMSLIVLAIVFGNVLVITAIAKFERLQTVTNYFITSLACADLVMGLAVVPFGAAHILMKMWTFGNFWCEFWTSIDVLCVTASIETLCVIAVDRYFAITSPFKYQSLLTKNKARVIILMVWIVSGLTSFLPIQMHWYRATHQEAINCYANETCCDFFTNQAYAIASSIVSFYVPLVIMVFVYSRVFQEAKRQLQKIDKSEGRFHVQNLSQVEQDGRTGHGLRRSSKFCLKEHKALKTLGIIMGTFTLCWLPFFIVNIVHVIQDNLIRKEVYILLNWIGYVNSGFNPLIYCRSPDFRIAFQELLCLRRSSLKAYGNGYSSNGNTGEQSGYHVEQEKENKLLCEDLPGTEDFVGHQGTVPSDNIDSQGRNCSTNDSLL

The compound `CNCCN1CCC(c2cc(CN(C)C(=O)c3cccc(Oc4ccccc4)c3)ccn2)CC1` displayed a % activity in assay [1] above 90%.
Take `CCn1c(-c2nc3cc(C(=O)N4CCCC(N)C4)ccc3n2C)cc2ccccc21` (configuration not stated): the pXC50 in assay [2] was below 4.5 M.
Consider `CC[C@@H]1[C@H](F)C(=O)N[C@@H]1COc1nccc2cc(C(N)=O)c(OC)cc12` [ZIMLOVISERTIB], for which the % of inhibition in assay [3] is -35.3%; in assay [4], -31.2%.
Take `C=CC(=O)Nc1cccc(C(=O)Nc2ccc(Nc3cc(-c4[nH]c(SC)nc4C)ccn3)cc2)c1`: the % of control in assay [5] is 96%.
On to `CCC(=O)N1CCN(c2ccc(-n3c(=O)ccc4cnc5ccc(-c6cnc7ccccc7c6)cc5c43)cc2C(F)(F)F)CC1`, for which the % of control in assay [6] was determined as 97%.
Regarding `O[C@H]1CC[C@H](Nc2ncc3nc(Nc4c(F)cc(F)cc4F)n([C@H]4CCOC4)c3n2)CC1`, the % of control in assay [7] was 89%.

For the origin of these results see ChEMBL document CHEMBL5465560, “Selectivity Literature for EUbOPEN Chemogenomic Library” (2024).
